Test results published in patent US20260071518A1, “SURFACTANT FOR CARBON DIOXIDE STORAGE” (TOTALENERGIES ONETECH, priority 2022, published 2026).

Key:
[1] = carbonate core co-injection of carbon dioxide and surfactant-water composition, gas saturation and apparent viscosity (Example 4); format: physicochemical; conditions: 0.2 wt. % in water, 110° C., 150 bar
Description: In this example, experiments were conducted using a carbonate core. The core was 30.1 cm long, having a diameter of 3.8 cm, a porosity of 28%, permeability of 130 md.
A surfactant-water composition was prepared by dissolving 0.2 wt. % of a surfactant compound (compound E of Example 1, N^1-dodecyl-N^3,N^3-dimethylpropane-1,3-diamine) in water.
Carbon dioxide and the surfactant-water composition were co-injected into the carbonate core via two separate inlets, at a temperature of 110° C. and at a pressure of 150 bar, with a total flow rate of 4 ft/day, varying the fraction of carbon dioxide from 50% to 95%. Carbon dioxide and water alone were also co-injected into the carbonate core under the same conditions.
The gas saturation in the core was measured by obtaining a mass balance between what is injected (water+CO2−pump control) and produced water measured by burette (volume) along with a scale (mass).
The apparent viscosity was calculated based on Darcy's law.

[2] = slim tube packed with sand, co-injection of carbon dioxide and surfactant-brine composition, apparent viscosity (Example 1); format: physicochemical; conditions: 0.2 wt. % in 220 g/L NaCl brine, pH=6, 25° C., 150 bar, carbon dioxide fraction 50%, versus comparative surfactant compounds
Description: In this example, experiments were conducted within a slim tube packed with sand. The tube length was 25 cm, the tube diameter was 1 cm.
Various surfactant compositions were made by dissolving 0.2 wt. % of an individual surfactant compound in brine having a NaCl content of 220 g/L, buffered at pH=6 with a sodium acetate/acetic acid buffer.
Carbon dioxide and the surfactant-brine composition were co-injected into the slim tube via two separate inlets, at a temperature of 25° C. and at a pressure of 150 bar, with a total flow rate of 60 ft/day and a carbon dioxide fraction of 50%.
The pressure drop across the tube was measured and the apparent viscosity was calculated based on Darcy's law. Specifically, the apparent viscosity was obtained according to the following formula: (permeability×pressure gradient)/(volume flow/inlet area of the core (tube)).

## CCCCCCCCCCCCNCCCN(C)C [Compound E, N^1-dodecyl-N^3,N^3-dimethylpropane-1,3-diamine]
[1]; CO2 fraction 50% to 95%, versus absence of surfactant
  apparent viscosity of the resulting emulsion: higher apparent viscosity
[1]; CO2 fraction increased from 50 to 95%
  change of apparent viscosity with CO2 fraction: decreased
[1]; at each CO2 fraction tested (50% to 95%)
  gas (CO2) saturation increase compared to absence of surfactant: 2-4 fold
[2]
  rise in apparent viscosity: quicker and higher rise in viscosity
